Assay [1] relates to ovariectomy-induced bone loss in mice. The assay is described as follows: Bone matrix composition by FTIRI at the femur midshaft, ovariectomized mice. The format is in vivo. The settings on record: OVX mice, cortical bone femur, vs vehicle. How it is done: At 16 weeks of age, ALZET osmotic pumps (model number 2006, Durect Corp., Cupertino, CA) filled with the below saline or peptide were implanted subcutaneously between the two scapula under general anesthesia in 32 mice. Successful filling of pumps was verified by weighting the pump before and after filling. At 20 weeks of age, ALZET osmotic pumps were replaced by similar pumps to ensure delivery for four new weeks. […] This dose and regimen of zoledronic acid was equivalent to the 5 mg infusion approved for the treatment of post-menopausal osteoporosis in humans. After three-point bending experiments, femurs were embedded undecalcified in pMMA at 4° C. One-micrometer cross-sectional sections of the midshaft femur were sandwiched between BaF2 optical windows and Fourier transform infrared imaging (FTIRI) assessment was performed in the posterior quadrant. FTIRI was performed with a vertex 70 spectrometer (Bruker, Ettlingen, Germany) interfaced with a Hyperion 3000 microscope and a focal plane array detector (64×64 pixels) covering a field of view of 180×180 μm. Nine field-of-view were stitched together to allow sufficient bone to be analyzed. Sections were scanned with a spectral resolution of 8 cm^-1 (spectral region 900-2000 cm^-1). Each spectrum was corrected for Mie scattering with the […]5 algorithm (kind gift of Prof Peter Gardner, University of Manchester, UK) prior to be subjected to pMMA subtraction. Evaluation of spectral images was done with a lab-made routine script in Matlab R2016b (The Mathworks, Natick, MA) as described in Aguado et al. (2017) Calcif Tissue Int 100:332-340. FTIR bone parameters ([…] (2012) Methods Mol Biol 816:517-525) calculated were: (1) phosphate/amide ratio (area of v1, v3 phosphate/area amide1); (2) acid phosphate content (intensity ratio 1127 cm^-1/1096 cm^-1) (Spevak et al. (2013) Calcif Tissue Int 92:418-428); (3) mineral crystallinity (intensity ratio 1030 cm^-1/1020 cm^-1), reflecting crystal size and perfection; […] (2001) J Bone Miner Res 16:893-900). For each of the compositional parameters, the mean and full width at half maximum of the pixel distribution (excluding the zero background values) were computed and represented as mean and heterogeneity.

Assay [2] has the same test system. As to the kind of experiment: Trabecular bone strength, compression test of second lumbar vertebra, ovariectomized mice. The assay is classed as in vivo. Conditions: OVX mice, vs vehicle; GL-0001 25, GL-0007 25 and 100 nmoles/kg/day; zoledronic acid once 100 μg/kg. How it is done:
At 16 weeks of age, ALZET osmotic pumps (model number 2006, Durect Corp., Cupertino, CA) filled with the below saline or peptide were implanted subcutaneously between the two scapula under general anesthesia in 32 mice. Successful filling of pumps was verified by weighting the pump before and after filling. At 20 weeks of age, ALZET osmotic pumps were replaced by similar pumps to ensure delivery for four new weeks. […] This dose and regimen of zoledronic acid was equivalent to the 5 mg infusion approved for the treatment of post-menopausal osteoporosis in humans. Compression experiments were performed on L2. Briefly, vertebral bodies were carefully dissected and glued with cyanoacrylate glue on a Plexiglas plate and then incubated in saline at 4° C. until use the next day. L2 vertebral bodies were compressed to failure at a displacement rate of 1 mm/min using an Instron 5942 device. Load and displacement of the upper plateau were recorded at a sampling rate of 100 Hz. Maximum load and stiffness were computerized from load-displacement curves.

The test system of the next assay is Murine MC3T3-E1 cells. The assay is described as follows: Collagen maturity assay in MC3T3-E1 cultures (Example 2). The settings on record: compared with [D-Ala^2]GIP1-30NH2 and [Gly^2]GLP-2. The format is cell-based. How it is done: At confluence, the propagation medium was replaced by the differentiation medium containing αMEM supplemented with 5% FBS, 5% bovine calf serum, 100 U/mL penicillin, 100 μg/mL streptomycin, 50 μg/ml ascorbic acid and various concentrations of analogues. This day was considered as day 1. The differentiation medium was replenished every two days. […] Cultures were rinsed at least six times with milliQ water, fixed in absolute ethanol, scrapped off the culture dish and transferred onto BaF2 windows where they were air-dried. Integrity of the collagen extracellular matrix was verified by comparing the obtained Fourier transform infrared spectrum with those of commercial collagen. Spectral analysis was performed using a Bruker Vertex 70 spectrometer (Bruker optics, Ettlingen, Germany) interfaced with a Bruker Hyperion 3000 infrared microscope equipped with a standard single element Mercury Cadmium Telluride (MCT) detector. Infrared spectra were recorded at a resolution of 4 cm^−1, with an average of 32 scans in transmission mode. Background spectral images were collected under identical conditions from the same BaF2 windows at the beginning and end of each experiment to ensure instrument stability. At least 20 spectra were acquired for each condition and analyzed with a lab-made routine script in Matlab R2016b (The Mathworks, Natick, MA).

For another assay, the system named is Murine Raw 264.7 cells. The format is cell-based. The settings on record: for IC50 computed from curve fitting of osteoclastogenesis vs. peptide concentration: Raw 264.7, RANKL 10 ng/ml, 110 h, * values determined from previous experiments.

The source of these data is patent publication US12617831B2 (UNIVERSITE D'ANGERS, priority 2019, dated 2026).

Where two headings read alike, the source gives them in different places.

On to `CC[C@H](C)[C@H](NC(=O)[C@H](CO)NC(=O)[C@H](Cc1ccccc1)NC(=O)[C@H](CC(=O)O)NC(=O)[C@H](CO)NC(=O)CNC(=O)[C@H](Cc1ccccc1)NC(=O)[C@H](CO)NC(=O)CNC(=O)[C@H](CCC(=O)O)NC(=O)CNC(=O)[C@@H](N)Cc1c[nH]cn1)C(=O)N[C@@H](C)C(=O)N[C@@H](CC(C)C)C(=O)N[C@@H](CC(=O)O)C(=O)N[C@@H](CCCCN)C(=O)N[C@@H](CC(C)C)C(=O)N[C@@H](C)C(=O)N[C@@H](C)C(=O)N[C@@H](CCCNC(=N)N)C(=O)N[C@@H](CC(=O)O)C(=O)N[C@@H](Cc1ccccc1)C(=O)N[C@H](C(=O)N[C@@H](CC(N)=O)C(=O)N[C@@H](Cc1c[nH]c2ccccc12)C(=O)N[C@@H](CC(C)C)C(=O)N[C@@H](CC(C)C)C(=O)N[C@@H](CCC(N)=O)C(=O)N[C@H](C(=O)N[C@@H](CCCCN)C(N)=O)[C@@H](C)O)C(C)C` [GL-0007], for which, in assay [1] (100 nmoles/kg/day), the “augmentation of acid phosphate content heterogeneity” value is on record as 18%. Moreover, the “bone stiffness, compression of second lumbar vertebra” value in assay [2] is “significantly reduced”. The “potency versus native peptides, based on osteoclast formation in vitro and collagen maturity in vitro” value with Murine MC3T3-E1 cells is on record as “better potency than each native peptide”. For the same compound, in the assay with Murine Raw 264.7 cells, the concentration for a half-maximal effect (EC50) (usually the concentration giving half of the maximal effect) was found to be 0.0062 nM and the IC50 computed from curve fitting of osteoclastogenesis vs. peptide concentration was 0.0062 nM.

Take `CC[C@H](C)[C@H](NC(=O)[C@H](CO)NC(=O)[C@H](CCSC)NC(=O)[C@H](CC(=O)O)NC(=O)[C@H](CO)NC(=O)CNC(=O)[C@H](Cc1ccccc1)NC(=O)[C@H](CO)NC(=O)CNC(=O)[C@H](CCC(=O)O)NC(=O)CNC(=O)[C@@H](N)Cc1c[nH]cn1)C(=O)N[C@@H](C)C(=O)N[C@@H](CC(C)C)C(=O)N[C@@H](CC(=O)O)C(=O)N[C@@H](CCCCN)C(=O)N[C@@H](CC(C)C)C(=O)N[C@@H](C)C(=O)N[C@@H](C)C(=O)N[C@@H](CCCNC(=N)N)C(=O)N[C@@H](CC(=O)O)C(=O)N[C@@H](Cc1ccccc1)C(=O)N[C@H](C(=O)N[C@@H](CC(N)=O)C(=O)N[C@@H](Cc1c[nH]c2ccccc12)C(=O)N[C@@H](CC(C)C)C(=O)N[C@@H](CC(C)C)C(=O)N[C@@H](CCC(N)=O)C(=O)N[C@H](C(=O)N[C@@H](CCCCN)C(=O)N[C@H](C(=O)N[C@H](C(=O)N[C@@H](CC(=O)O)C(=O)O)[C@@H](C)O)[C@@H](C)CC)[C@@H](C)O)C(C)C` [GL-0001]: in assay [1] (25 nmoles/kg/day), the “increase in acid phosphate content heterogeneity” value is reported as 21%, the “increase in collagen maturity heterogeneity” value is 28% and the “increase in mean collagen maturity” value is reported as 10%. In assay [2], the “bone stiffness, compression of second lumbar vertebra” value was “significantly reduced”. Moreover, the “potency versus native peptides, based on osteoclast formation in vitro and collagen maturity in vitro” value in the assay on Murine MC3T3-E1 cells is listed as “better potency than each native peptide”. This compound also displayed an IC50 computed from curve fitting of osteoclastogenesis vs. peptide concentration in the assay with Murine Raw 264.7 cells of 0.0142 nM. Moreover, in the assay on Murine Raw 264.7 cells (Raw 264.7, * data obtained in previous experiments, read-out: EC50 of inhibitory effect on osteoclastogenesis), the EC50 worked out at 0.0142 nM.
